Measurements from patent US20250145594A1, “MODULATORS OF THE INTEGRATED STRESS PATHWAY” (Calico Life Sciences LLC, priority 2020, published 2025).

System: ATF4 luciferase reporter in HEK293T cells
Test: ATF4-Luc assay (in vitro model of VWMD)
Format: cell-based, human
Conditions: Homo sapiens, HEK-293T, 7 h, HEK293T cells carrying the ATF4 luciferase reporter, 1 μg/mL tunicamycin, One Glo luminescence
How it was run: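 Stable HEK293T line expressing firefly luciferase behind the human ATF4 5′-UTR, treated with 1 μg/mL tunicamycin plus compound for 7 hours. Luminescence read with One Glo; EC50 determined.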

For `COc1ccc2nn(C34CC(NC(=O)[C@H]5C[C@@H](O)c6cc(Cl)c(Cl)cc6O5)(C3)C4)cc2c1` [Compound 507, (2R,4R)-6,7-dichloro-4-hydroxy-N-[3-(5-methoxy-2H-indazol-2-yl)bicyclo[1.1.1]pentan-1-yl]-3,4-dihydro-2H-1-benzopyran-2-carboxamide], the EC50 was < 10 nM.

`O=C(NC12CC(n3cc(C(=O)N4CC[C@@H](COC(F)(F)F)C4)cn3)(C1)C2)[C@H]1C[C@@H](O)c2cc(Cl)ccc2O1` [Compound 397, (2R,4R)-6-chloro-4-hydroxy-N-[3-(4-{(3R)-3-[(trifluoromethoxy)methyl]pyrrolidine-1-carbonyl}-1H-pyrazol-1-yl)bicyclo[1.1.1]pentan-1-yl]-3,4-dihydro-2H-1-benzopyran-2-carboxamide] showed an EC50 of 50 to 250 nM.

For `O=C(N[C@H]1CC[C@H](n2cc(-c3ccc(C(F)(F)F)cn3)cn2)CC1)[C@H]1C[C@@H](O)c2cc(Cl)ccc2O1` [Compound 577, (2R,4R)-6-chloro-4-hydroxy-N-[(1r,4R)-4-{4-[5-(trifluoromethyl)pyridin-2-yl]-1H-pyrazol-1-yl}cyclohexyl]-3,4-dihydro-2H-1-benzopyran-2-carboxamide], the EC50 was < 10 nM.

With `O=C(CO[C@H]1C[C@@H](OC(F)(F)F)C1)NC12CCC(NC(=O)[C@H]3C[C@@H](O)c4cc(C(F)(F)F)ccc4O3)(CC1)[C@@H](O)C2` [Compound 489, (2R,4R)-4-hydroxy-N-[(2S)-2-hydroxy-4-(2-{[(1s,3R)-3-(trifluoromethoxy)cyclobutyl]oxy}acetamido)bicyclo[2.2.2]octan-1-yl]-6-(trifluoromethyl)-3,4-dihydro-2H-1-benzopyran-2-carboxamide] the EC50 was < 10 nM.

For `O=C(NC12CC(n3cc(-c4ccc(OC(F)(F)F)cn4)cn3)(C1)C2)[C@@H]1C[C@H](O)c2cc(C(F)(F)F)ccc2O1` [Compound 338, (2S,4S)-4-hydroxy-N-(3-{4-[5-(trifluoromethoxy)pyridin-2-yl]-1H-pyrazol-1-yl}bicyclo[1.1.1]pentan-1-yl)-6-(trifluoromethyl)-3,4-dihydro-2H-1-benzopyran-2-carboxamide], the EC50 was < 10 nM.

For `COc1ccc2nn(C34CC(NC(=O)[C@H]5C[C@@H](O)c6cc(Cl)ccc6O5)(C3)C4)cc2n1` [Compound 462, (2R,4R)-6-chloro-4-hydroxy-N-[3-(5-methoxy-2H-pyrazolo[4,3-b]pyridin-2-yl)bicyclo[1.1.1]pentan-1-yl]-3,4-dihydro-2H-1-benzopyran-2-carboxamide], the EC50 was < 10 nM.

For `O=C(NC12CC(n3cc(-c4ccn(C(F)(F)F)n4)cn3)(C1)C2)[C@H]1C[C@@H](O)c2cc(Cl)ccc2O1` [Compound 556, (2R,4R)-6-chloro-4-hydroxy-N-{3-[1-(trifluoromethyl)-1H,1′H-[3,4′-bipyrazol]-1′-yl]bicyclo[1.1.1]pentan-1-yl}-3,4-dihydro-2H-1-benzopyran-2-carboxamide], the EC50 was < 10 nM.

For `COc1ccc2nn([C@H]3CC[C@H](NC(=O)COc4ccc(Cl)c(Cl)c4)CC3)cc2n1` [Compound 596, 2-(3,4-dichlorophenoxy)-N-[(1r,4r)-4-(5-methoxy-2H-pyrazolo[4,3-b]pyridin-2-yl)cyclohexyl]acetamide], the EC50 was < 10 nM.

Work on `O=C(NCc1ccc(C(F)(F)F)cn1)[C@H]1C[C@H]2O[C@@H]1CC2NC(=O)[C@H]1C[C@@H](O)c2cc(Cl)ccc2O1` (mixture of isomers) [Compound 313, (2R,4R)-6-chloro-4-hydroxy-N-[(1RS,2SR,4RS,5SR)-5-({[5-(trifluoromethyl)pyridin-2-yl]methyl}carbamoyl)-7-oxabicyclo[2.2.1]heptan-2-yl]-3,4-dihydro-2H-1-benzopyran-2-carboxamide] yielded an EC50 of 250 to 500 nM.

For `O=C(CO[C@H]1C[C@@H](OC(F)(F)F)C1)NC12CCC(NC(=O)[C@H]3C[C@@H](O)c4cc(Cl)c(F)cc4O3)(CC1)[C@@H](O)C2` [Compound 490, (2R,4R)-6-chloro-7-fluoro-4-hydroxy-N-[(2S)-2-hydroxy-4-(2-{[(1s,3R)-3-(trifluoromethoxy)cyclobutyl]oxy}acetamido)bicyclo[2.2.2]octan-1-yl]-3,4-dihydro-2H-1-benzopyran-2-carboxamide], the EC50 was < 10 nM.

Work on `Cn1nc(C23CC(NC(=O)COc4ccc(Cl)c(F)c4)(C2)C3)cc1OC[C@H]1C[C@@H](OC(F)(F)F)C1` [Compound 387, 2-(4-chloro-3-fluorophenoxy)-N-[3-(1-methyl-5-{[cis-3-(trifluoromethoxy)cyclobutyl]methoxy}-1H-pyrazol-3-yl)bicyclo[1.1.1]pentan-1-yl]acetamide] yielded an EC50 of 50 to 250 nM.

With `CN(CCOC(F)(F)F)c1cnn(C23CC(NC(=O)[C@H]4C[C@@H](O)c5cc(Cl)ccc5O4)(C2)C3)c1` [Compound 411, (2R,4R)-6-chloro-4-hydroxy-N-[3-(4-{methyl[2-(trifluoromethoxy)ethyl]amino}-1H-pyrazol-1-yl)bicyclo[1.1.1]pentan-1-yl]-3,4-dihydro-2H-1-benzopyran-2-carboxamide] the EC50 was 10 to 50 nM.

In the case of `COc1ccc2cn(C34CC(NC(=O)[C@H]5C[C@@H](O)c6cc(Cl)c(F)cc6O5)(C3)C4)nc2c1` [Compound 504, (2R,4R)-6-chloro-7-fluoro-4-hydroxy-N-[3-(6-methoxy-2H-indazol-2-yl)bicyclo[1.1.1]pentan-1-yl]-3,4-dihydro-2H-1-benzopyran-2-carboxamide], the EC50 is reported as < 10 nM.

For `O=C(NC12CC(n3cc(OCCOC(F)(F)F)cn3)(C1)C2)[C@H]1C[C@@H](O)c2cc(Cl)ccc2O1` [Compound 412, (2R,4R)-6-chloro-4-hydroxy-N-(3-{4-[2-(trifluoromethoxy)ethoxy]-1H-pyrazol-1-yl}bicyclo[1.1.1]pentan-1-yl)-3,4-dihydro-2H-1-benzopyran-2-carboxamide], the EC50 was < 10 nM.

With `COc1ccc2nn(C34CC(NC(=O)[C@H]5C[C@@H](O)c6cc(Cl)c(F)cc6O5)(C3)C4)cc2c1` [Compound 505, (2R,4R)-6-chloro-7-fluoro-4-hydroxy-N-[3-(5-methoxy-2H-indazol-2-yl)bicyclo[1.1.1]pentan-1-yl]-3,4-dihydro-2H-1-benzopyran-2-carboxamide] the EC50 was < 10 nM.

`O=C(NC12CC(n3cnc(C(=O)N4CC(COC(F)(F)F)C4)c3)(C1)C2)[C@H]1C[C@@H](O)c2cc(Cl)ccc2O1` [Compound 368, (2R,4R)-6-chloro-4-hydroxy-N-[3-(4-{3-[(trifluoromethoxy)methyl]azetidine-1-carbonyl}-1H-imidazol-1-yl)bicyclo[1.1.1]pentan-1-yl]-3,4-dihydro-2H-1-benzopyran-2-carboxamide] showed an EC50 of 10 to 50 nM.

`O=C(NC12CC(n3cc4cc(OC(F)F)ccc4n3)(C1)C2)[C@H]1C[C@@H](O)c2cc(Cl)ccc2O1` [Compound 502, (2R,4R)-6-chloro-N-{3-[5-(difluoromethoxy)-2H-indazol-2-yl]bicyclo[1.1.1]pentan-1-yl}-4-hydroxy-3,4-dihydro-2H-1-benzopyran-2-carboxamide] gave an EC50 of 50 to 250 nM.

Compound `COc1cc2cn(C34CC(NC(=O)[C@H]5C[C@@H](O)c6cc(Cl)c(F)cc6O5)(C3)C4)nc2cn1` [Compound 498, (2R,4R)-6-chloro-7-fluoro-4-hydroxy-N-[3-(5-methoxy-2H-pyrazolo[3,4-c]pyridin-2-yl)bicyclo[1.1.1]pentan-1-yl]-3,4-dihydro-2H-1-benzopyran-2-carboxamide] has an EC50 of 10 to 50 nM.

With `O=C(NC12CC(n3cc(OCCCOC(F)(F)F)cn3)(C1)C2)[C@H]1C[C@H](O)c2cc(C(F)(F)F)c(F)cc2O1` [Compound 636, (2R,4S)-7-fluoro-4-hydroxy-N-(3-{4-[3-(trifluoromethoxy)propoxy]-1H-pyrazol-1-yl}bicyclo[1.1.1]pentan-1-yl)-6-(trifluoromethyl)-3,4-dihydro-2H-1-benzopyran-2-carboxamide] the EC50 was < 10 nM.

In the case of `O=C(NC12CC(n3cc(C(=S)N4CC[C@H](OC(F)(F)F)C4)cn3)(C1)C2)[C@H]1C[C@@H](O)c2cc(Cl)ccc2O1` [Compound 390, (2R,4R)-6-chloro-4-hydroxy-N-(3-{4-[(3S)-3-(trifluoromethoxy)pyrrolidine-1-carbothioyl]-1H-pyrazol-1-yl}bicyclo[1.1.1]pentan-1-yl)-3,4-dihydro-2H-1-benzopyran-2-carboxamide], the EC50 is reported as < 10 nM.

For `O=C(NC12CC(n3cnc(-c4c(F)cc(Cl)cc4F)c3)(C1)C2)[C@H]1C[C@@H](O)c2cc(Cl)ccc2O1` [Compound 344, (2R,4R)-6-chloro-N-{3-[4-(4-chloro-2,6-difluorophenyl)-1H-imidazol-1-yl]bicyclo[1.1.1]pentan-1-yl}-4-hydroxy-3,4-dihydro-2H-1-benzopyran-2-carboxamide], the EC50 was < 10 nM.

For `COc1cc2cn(C34CC(NC(=O)[C@H]5C[C@@H](O)c6cc(Cl)c(Cl)cc6O5)(C3)C4)nc2cn1` [Compound 503, (2R,4R)-6,7-dichloro-4-hydroxy-N-[3-(5-methoxy-2H-pyrazolo[3,4-c]pyridin-2-yl)bicyclo[1.1.1]pentan-1-yl]-3,4-dihydro-2H-1-benzopyran-2-carboxamide], the EC50 was < 10 nM.

Compound `O=C(NC12CC(n3cc(O[C@H]4C[C@H](COC(F)(F)F)C4)cn3)(C1)C2)[C@H]1C[C@@H](O)c2cc(Cl)ccc2O1` [Compound 588, (2R,4R)-6-chloro-4-hydroxy-N-{3-[4-(((1r,3R)-3-[(trifluoromethoxy)methyl]cyclobutyl}oxy)-1H-pyrazol-1-yl]bicyclo[1.1.1]pentan-1-yl)-3,4-dihydro-2H-1-benzopyran-2-carboxamide] has an EC50 of 10 to 50 nM.

Work on `O=C(NC12CC(n3cc(C(=O)N4CC(CC(F)F)C4)cn3)(C1)C2)[C@H]1C[C@@H](O)c2cc(Cl)ccc2O1` [Compound 377, (2R,4R)-6-chloro-N-(3-{4-[3-(2,2-difluoroethyl)azetidine-1-carbonyl]-1H-pyrazol-1-yl}bicyclo[1.1.1]pentan-1-yl)-4-hydroxy-3,4-dihydro-2H-1-benzopyran-2-carboxamide] yielded an EC50 of 250 to 500 nM.

`O=C(CO[C@H]1C[C@@H](OC(F)(F)F)C1)NC12CC(NC(=O)[C@@H]3C[C@@H](O)c4cc(Cl)ccc4O3)(C1)C2` [Compound 208, (2S,4R)-6-chloro-4-hydroxy-N-[3-(2-{[cis-3-(trifluoromethoxy)cyclobutyl]oxy}acetamido)bicyclo[1.1.1]pentan-1-yl]-3,4-dihydro-2H-1-benzopyran-2-carboxamide] was tested, and the EC50 was < 10 nM.
